Reference: US4178284A, “Octapeptides” (American Home Products Corporation, priority 1978, dated 1979)

Columns and labels:
[1] = tested on: analgesia; details: Tseng et al.; cited from earlier work
[2] = tested on: analgesia; details: Loh et al.; cited from earlier work
[3] = tested on: growth hormone and prolactin release; details: rat; Dupont et al., Rivier et al.; cited from earlier work
[4] = tested on: growth hormone release; test: growth hormone release, serum concentration, procedure of Lien et al. Febs. Letters 88 208-210 (1978); type: in vivo; details: 2 milligrams per kilogram; control 55±8 ng/ml; p<0.05
Procedure: Illustrative of the growth hormone releasing ability of the compounds of this invention is the activity of des-(66-88)-β-endorphin, representative of the other compounds, which at 2 milligrams per kilogram caused growth hormone release to result in a serum concentration of 380±124 ng/ml. as related to the control concentration of 55±8 ng/ml. at a confidence level of p<0.05, following the procedure of Lien et al. Febs. Letters 88 208-210 (1978).

[5] = tested on: analgesia; test: analgesia on intracerebroventricular administration; type: in vivo

| Substance | analgesic activity by intravenous injection [1] | analgesic activity by intracerebral administration [2] | growth hormone release stimulation [3] | prolactin release stimulation [3] | growth hormone serum concentration [4] | intracerebroventricular analgesic activity [5] |
| --- | --- | --- | --- | --- | --- | --- |
| H-Tyr-Gly-Gly-Phe-Met-Thr-Ser-Glu-Lys-Ser-Gln-Thr-Pro-Leu-Val-Thr-Leu-Phe-Lys-Asn-Ala-Ile-Ile-Lys-Asn-Ala-His-Lys-Lys-Gly-Gln-OH (H-YGGFMTSEKSQTPLVTLFKNAIIKNAHKKGQ-OH) [β-Endorphin, naturally occurring peptide isolated by Bradbury et al. and Li et al] | potent analgesic activity | potent analgesic activity | growth hormone and prolactin release stimulation | growth hormone and prolactin release stimulation | – | – |
| L-Tyrosyl-glycyl-glycyl-L-phenylalanyl-L-methionyl-L-lysyl-glycyl-L-glutamine diacetate [des-(66-88)-β-endorphin] | – | – | – | – | 380 ± 124 ng/mL | intracerebroventricular analgesic agents |
